How the values were obtained:
[1] = tested on: osteoblast enriched rat embryo calvaria cell cultures; experiment: CK specific activity in rat embryo calvaria cell cultures; assay type: cell-based; details: for CK specific activity, effect of fragment (experimental value/control value): 100 nM, 24 h, control 457 ± 46 nmol/min per mg of protein; for increase of CK activity (in words): treated for 24 h
In short: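 Osteoblast-enriched rat embryo calvaria cultures stimulated with PTH fragments from the central portion of the molecule. Cyclic AMP measured 15 min after stimulation; CK specific activity measured 24 h after stimulation. Values are means ±S.E.M., N≥5, compared with controls by Student's T test.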

[2] = tested on: rat epiphysial cartilage cell cultures; experiment: CK specific activity in rat epiphysial cartilage cell cultures; assay type: cell-based; details: for CK specific activity: 100 nM, control 225 ± 32
Protocol: To compare the stimulations seen in osteoblast-like cells (FIGS. 10 and 11) with PTH effects in a cartilage system, cultures of rat epiphysial cartilage cells were incubated with full-length PTH and selected PTH fragments (Table 3). CK activity was stimulated by bPTH(1-84) and hPTH(28-48) but not by hPTH(25-39) or hPTH(34-47). […] The comparison between the complete molecule and the mid-regional fragment hPTH (28-48) is similar to but not identical with the results obtained for calvaria cell cultures (FIGS. 10 and 11) and in the chick sternum chondrocyte system; cf. Biochem. J., 252 (1988) 263-268 (11; Farndale et al.),

[3] = tested on: rat epiphysial cartilage cell cultures; experiment: DNA synthesis in rat epiphysial cartilage cell cultures; assay type: cell-based; details: for [^3 H]Thymidine incorporation into DNA: 100 nM, control 350 ± 25
[4] = tested on: ROS 17/2.8 osteoblast-like cells; experiment: Cyclic AMP production in ROS 17/2.8 osteoblast-like cells; assay type: cell-based, rat; details: for Cyclic AMP, effect of fragment (experimental value/control value): control 29 ± 5.2 pmol/mg of protein
Protocol: When cultures of the widely used model for osteoblasts, the osteoblast-likeclone of rat osteosarcoma, ROS 17/2.8 (Endocrinology (Baltimore), 107 (1980) 1494-1503=12; Majeska et al.), were incubated with full-length PTH and PTH fragments (Table 4), cyclic AMP production was stimulated only by bPTH(1-84) and hPTH(1-34), whereas hPTH(25-39), hPTH(27-48), hPTH(28-48) and hPTH(34-47) were ineffective.

[5] = tested on: ROS 17/2.8 osteoblast-like cells; experiment: DNA synthesis in ROS 17/2.8 osteoblast-like cells; assay type: cell-based, rat; details: control 392 ± 58 c.p.m./μg of DNA
[6] = tested on: rat organs (epiphysis, diaphysis, kidney); experiment: [3H]thymidine incorporation into DNA in rat organs after i.p. injection; assay type: in vivo; details: 22-24 h after injection
Protocol: FIG. 12 is a graph showing the time course of stimulation by hPTH (1-34) of DNA synthesis in rat organs. Female rats (20-25 days old) were injected i.p. with hPTH-(1-34) (2 μg/rat). At 2 h before the times indicated, the rats were killed and organs were removed and incubated in 2 ml of Dulbecco's modified Eagle's medium containing 5 μl of [^3 H]thymidine. (Amersham: 5 Ci/mmol) for 2 h, then washed with medium and homogenized in deionized distilled water. The total uptake of [^3 H]thymidine and acid-insoluble radioactivity was measured, as well as DNA content, as described below. , Diaphysis; O, epiphysis; Δ; kidney. P<0.01 versus controls.
The pieces were then incubated for 2 h more (the time indicated in FIG. 12) with [^3 H]thymidine (5 μci/ml; 5 Ci/mmol) at 37° C. in Dulbecco's modified Eagle's medium under an atmosphere Of […] /95% air. Total [^3 H]thymidine uptake and incorporation into trichloroacetic acid-insoluble material was measured as described in Biochem. J., 214 (1983) 293-298 (16; Somjen et al.). At no time including the 22 24 h pulse, was there any significant change in the total uptake of [^3 H]thymidine which reflects changes in the thymidine pool which, in turn, could account for changes in incorporation. DNA was determined by the Burton method; cf. Biochem. J., 62 (1956) 315-323 (17; Burton).
To corroborate that under the circumstances of these experiments the increase in CK specific activity in bone is indeed a valid marker of cell proliferation, changes in DNA synthesis were measured by [^3 H]thymidine incorporation; cf. Biochem. J., 272 (1990) 781-785 (18; Somjen et al.). The earliest time at which PTH increased [^3 H]thymidine incorporation was determined by in-jecting rats with an optimal dose of 2 μp of PTH(1-34)/rat, equivalent to 13 nM (FIG. 14) and measuring 2 h pulses of [^3 H)thymidine incorporation into DNA (FIG. 12).

[7] = tested on: rat organs (epiphysis, diaphysis, kidney); experiment: as above; assay type: in vivo; details: rat; for [^3 H]thymidine incorporation into DNA, Kidney: control 9.0 ± 2.1; for [^3 H]thymidine incorporation into DNA, Diaphysis: control 24.1 ± 3.8; for [^3 H]thymidine incorporation into DNA, Epiphysis: control 25.8 ± 5.2
[8] = 22-24 h after injection of 1.25 μg
[9] = 22-24 h after injection of 0.876 μg
[10] = 22-24 h after injection of 0.875 μg

## hPTH(28-48): mid-regional PTH fragment 28-48, human source (LQDVHNFVALGAPLAPRDAGS; Parathyroid hormone; UniProt P01270 59-79, looked up, fragment)
[1]
  CK specific activity, effect of fragment (experimental value/control value): 2.15 ± 0.15
  increase of CK activity (in words): maximally active
[2]
  stimulation of CK activity (in words): stimulated
  CK specific activity: 346 ± 36 nmol/min per mg of protein
[3]
  [^3 H]Thymidine incorporation into DNA: 731 ± 44 c.p.m./plate
[4]
  stimulation of cyclic AMP production (in words): ineffective
[4]; 400 nM
  Cyclic AMP, effect of fragment (experimental value/control value): 1.18 ± 0.28
[5]; 400 nM
  [^3 H]Thymidine incorporation, effect of fragment (experimental value/control value): 1.56 ± 0.12
[6]
  potency in stimulating [^3 H]thymidine incorporation in diaphysis and epiphysis (in words): as potent as bPTH(1-84)
[7]; [8]
  [^3 H]thymidine incorporation into DNA, Kidney: 11.2 ± 2.7 c.p.m./pg of DNA
  [^3 H]thymidine incorporation into DNA, Diaphysis: 39.1 ± 8.1 c.p.m./pg of DNA
  [^3 H]thymidine incorporation into DNA, Epiphysis: 46.7 ± 7.4 c.p.m./pg of DNA

## hPTH(25-39): PTH fragment 25-39, human source (RKKLQDVHNFVALGA; Parathyroid hormone; UniProt P01270 56-70, looked up, fragment)
[1]
  CK specific activity, effect of fragment (experimental value/control value): 2.15 ± 0.24
[2]
  CK specific activity: 268 ± 36 nmol/min per mg of protein
[3]
  [^3 H]Thymidine incorporation into DNA: 544 ± 44 c.p.m./plate
[4]
  stimulation of cyclic AMP production (in words): ineffective
[4]; 200 nM
  Cyclic AMP, effect of fragment (experimental value/control value): 1.05 ± 0.15
[5]; 200 nM
  [^3 H]Thymidine incorporation, effect of fragment (experimental value/control value): 1.36 ± 0.08
[6]
  potency in stimulating [^3 H]thymidine incorporation in diaphysis and epiphysis (in words): as potent as hPTH(28-48)
[7]; [9]
  [^3 H]thymidine incorporation into DNA, Kidney: 11.2 ± 1.9 c.p.m./pg of DNA
  [^3 H]thymidine incorporation into DNA, Diaphysis: 44.8 ± 4.5 c.p.m./pg of DNA
  [^3 H]thymidine incorporation into DNA, Epiphysis: 48.4 ± 6.6 c.p.m./pg of DNA

## hPTH(34-47): PTH fragment 34-47, human source; comparative example (FVALGAPLAPRDAG; Parathyroid hormone; UniProt P01270 65-78, looked up, fragment) [reference compound]
[1]
  increase of CK activity (in words): inactive
[2]
  CK specific activity: 236 ± 32 nmol/min per mg of protein
[3]
  stimulation of DNA synthesis (in words): stimulated by all molecules tested except
  [^3 H]Thymidine incorporation into DNA: 356 ± 75 c.p.m./plate
[4]
  stimulation of cyclic AMP production (in words): ineffective
[4]; 500 nM
  Cyclic AMP, effect of fragment (experimental value/control value): 0.88 ± 0.31
[5]; 500 nM
  [^3 H]Thymidine incorporation, effect of fragment (experimental value/control value): 1.05 ± 0.11
[6]
  potency in stimulating [^3 H]thymidine incorporation in diaphysis and epiphysis (in words): inactive
[7]; [10]
  [^3 H]thymidine incorporation into DNA, Kidney: 9.0 ± 1.9 c.p.m./pg of DNA
  [^3 H]thymidine incorporation into DNA, Diaphysis: 28.6 ± 4.2 c.p.m./pg of DNA
  [^3 H]thymidine incorporation into DNA, Epiphysis: 28.0 ± 7.2 c.p.m./pg of DNA

From US5457092A, “Methods of promoting bone growth in mammals comprising administration of modified parathyroid hormone” (Gesellschaft fur Biotechnologische Forschung mbH (GBF), priority 1987, dated 1995)
